Publication PMC10479830, “Nucleoside analogs NM107 and AT-527 are antiviral against rubella virus” (PNAS Nexus, 2023)
pIC50: −log10 of the molar value. Like-named read-outs stand apart in the source and are kept apart here.

Tests used:
HCV [1] = test system: HCV; parameters: method as in PMID 16248033; conditions: reason for discontinuation; cited from earlier work
rubella virus [2] = test: rubella virus infection of HBMEC, dose-response; format: cell-based; conditions: for activity against rubella in HBMEC: dose-response
Method: Rubella virus can infect diverse tissues in vivo, and viruses can show tissue-specific dependencies on host factors. […] First, we developed assays in human brain microvascular endothelial cells (HBMECs) as a model for endothelial cells. We again used nanchangmycin to optimize the assay (Fig. 3A and B).
(§1) A549 cells were plated in 384 well plates at 3,000 cells/well, HBMEC were plated at 7,000 cells/well, or Jeg-3 cells were plated at 3,000 cells/well in 20 μL growth media. The next day, 50 nL of drugs were added to assay wells, yielding a final concentration of 1 µM. The positive control nanchangmycin (n = 32) and the negative control DMSO (n = 32) were spotted on each assay plate. One hour later, cells were infected with rubella virus at a multiplicity of infection (MOI) = 0.234 for A549s, MOI = 0.1 for HBMEC, MOI = 0.05 for Jeg-3 cells). […] HBMECs were spin-infected by centrifuging at 1,250×g for 1 h at 25°C. Cells were fixed at 48 h post infection (hpi) in 4% formaldehyde/phosphate-buffered saline (PBS) for 15 min at room temperature and then washed twice with PBS. Cells were blocked with blocking buffer [2% bovine serum albumin in PBS with 0.1% Triton X-100 (PBST)]) for 1 h and incubated with primary antibody (mouse antirubella E1, CDC, 1 μg/mL) overnight at 4°C. Cells were washed three times with PBST and incubated in secondary (1:1000 antimouse Alexa Fluor 488 and 5 μg/mL Hoechst 33342) for 1 h at room temperature. Cells were washed three times with PBST and imaged using ImageXpress Micro (Molecular Devices). Cells were imaged with a 10× objective capturing four sites per well. The total number of cells and the percentage of infected cells were measured using the MetaXpress 5.3.3 cell scoring module. The aggregated percent infection of the DMSO and 2 µM nanchangmycin control wells on each assay plate were used to calculate Z′-factors. Sample well infection was normalized to aggregated DMSO plate control wells and expressed as percentage of control (POC = [%Infection sample/Average %Infection DMSO] × 100) and Z-score (Z = [%Infection sample − Average %Infection DMSO]/Standard Deviation %Infection DMSO) in Spotfire (PerkinElmer). Candidate hits were selected as compounds with POC <40% and viability >60%, compared with vehicle control.
(§2) Drugs were purchased as powders from Selleckchem, MedchemExpress, and MedKoo and suspended in DMSO. Drugs were arrayed in 8-pt dose–response in 384 well plates. Infections were performed using the screening conditions. DMSO (n = 32) and 2 µM nanchangmycin (n = 16) were included on each validation plate as controls for normalization. Infection at each drug concentration was normalized to aggregated DMSO plate control wells and expressed as POC (POC = %Infection sample/Average %Infection DMSO cont). A nonlinear regression curve fit analysis (GraphPad Prism 8) was performed on POC infection and cell viability using log10 transformed concentration values to calculate IC50 values for infection and CC50 values for cell viability. SI was calculated as a ratio of the drug's CC50 and IC50 values (SI = CC50/IC50).

rubella RA27/3 virus = test: microbe, parasite or virus in culture; format: cell-based; conditions: for selectivity index (SI = CC50/IC50): A549 cells; for inhibition at 1 µM / pIC50: Rubella virus; for inhibition at 1 µM: A549, read-out: inhibition of infection in primary screen
Description: (§3) We developed a high-throughput, high-content, cell-based assay to monitor rubella virus infection of the human respiratory cell line A549, as the respiratory tract is infected in humans. […] We infected A549 cells with the rubella virus vaccine strain (RA27/3) and monitored infection using an antibody to the viral glycoprotein E1 (Fig. 1A) ([13]). […] To evaluate the utility of nanchangmycin as a positive control for our assay development, we performed a dose–response assay for nanchangmycin using automated fluorescent microscopy to quantify the cell number as a surrogate for cell viability and percent infection (Fig. 1A).
as §1, with “plate.” for “plate. One hour later, cells were infected with rubella virus at a multiplicity of infection (MOI) = 0.234 for A549s, MOI = 0.1 for HBMEC, MOI = 0.05 for Jeg-3 cells).”, “Cells were washed three times with PBST and incubated in secondary (1:1000 antimouse Alexa Fluor 488 and 5 μg/mL Hoechst 33342) for 1 h at room temperature.” left out
as §2

rubella virus [3] = test: rubella virus infection of Jeg-3 cells, dose-response; format: cell-based; conditions: for pIC50: Rubella virus
Method: Since rubella can cause congenital infections, we next developed assays in the human trophoblast cell line Jeg-3.
as §1, §2

[4] = cell number (cell viability) in A549 cells, Hoechst 33342, automated microscopy; format: cell-based, human; conditions: human
Description: as §3, §1, §2

Jeg-3 cells = test: cell number (cell viability) in Jeg-3 cells; format: cell-based, human
Method: as §1, with “The aggregated percent infection of the DMSO and 2 µM nanchangmycin control wells on each assay plate were used to calculate Z′-factors.” left out, “Candidate hits were selected as compounds with POC <40% and viability >60%, compared with vehicle control.” left out
(§4) Drugs were purchased as powders from Selleckchem, MedchemExpress, and MedKoo and suspended in DMSO. […] Infection at each drug concentration was normalized to aggregated DMSO plate control wells and expressed as POC (POC = %Infection sample/Average %Infection DMSO cont). […] SI was calculated as a ratio of the drug's CC50 and IC50 values (SI = CC50/IC50).

[5] = parameters: method as in PMID 16248033; conditions: cited from earlier work
rubella virus [6] = test: viral titers of A549 supernatants, TCID50 assay; format: cell-based; conditions: A549 cells, 10 µM, 48 hpi, at the limit of detection
Method: (§5) A549 or Jeg-3 cells were plated, treated, and infected as for the qRT–PCR experiments. At 4 hpi, cells were washed twice with DPBS (Invitrogen) to remove any nonadsorbed virus and 2 mL of appropriate culture medium treated with vehicle or drug was added. At 48 hpi, cell supernatants were collected and titered by TCID50 assay.
(§6) A549 cells were plated in 96 well plates at 25,000 cells/well and incubated overnight before inoculating with two-fold serial dilutions of viral stock or virus-containing supernatant to determine viral titer. At 24 hpi, plates were processed for microscopy and imaged as above. Titers were calculated using the Reed–Muench method ([26]).

rubella virus [7] = test: viral titers of Jeg-3 supernatants, TCID50 assay; format: cell-based; conditions: Jeg-3 cells, 10 μM, 48 hpi, below the limit of detection
Method: as §5, §6

[8] = cell number (cell viability) in HBMEC; format: cell-based; conditions: human, HBMEC (infected with rubella virus)
Method: A549 cells were plated in 384 well plates at 3,000 cells/well, HBMEC were plated at 7,000 cells/well, or Jeg-3 cells were plated at 3,000 cells/well in 20 μL growth media. The next day, 50 nL of drugs were added to assay wells, yielding a final concentration of 1 µM. The positive control nanchangmycin (n = 32) and the negative control DMSO (n = 32) were spotted on each assay plate. One hour later, cells were infected with rubella virus at a multiplicity of infection (MOI) = 0.234 for A549s, MOI = 0.1 for HBMEC, MOI = 0.05 for Jeg-3 cells). […] HBMECs were spin-infected by centrifuging at 1,250×g for 1 h at 25°C. […] The total number of cells and the percentage of infected cells were measured using the MetaXpress 5.3.3 cell scoring module. […] Sample well infection was normalized to aggregated DMSO plate control wells and expressed as percentage of control (POC = [%Infection sample/Average %Infection DMSO] × 100) and Z-score (Z = [%Infection sample − Average %Infection DMSO]/Standard Deviation %Infection DMSO) in Spotfire (PerkinElmer). […]
as §4

rubella virus [9] = test: qRT-PCR of viral RNA in infected A549 cells; format: cell-based; conditions: 10 µM, 48 h, vs vehicle
Method: (§7) We next performed orthogonal assays to determine the magnitude of the inhibition of rubella infection upon treatment with either NM107 or AT-527. […] We also determined if these nucleoside analogs impacted virus production.
(§8) A549 cells were plated in 6-well plates at 5 × 10^5 cells/well, HBMEC were plated at 6 × 10^5 cells/well, or Jeg-3 cells were plated at 5 × 10^5 cells/well. Twenty-four hours later, vehicle or drugs were added at the indicated concentrations. One hour later, cells were infected with rubella virus (MOI = 0.17 for A549s, MOI = 0.07 for HBMEC, MOI = 0.05 for Jeg-3 cells) and HBMEC were spin-infected by centrifuging at 1,250×g for 1 h at 25°C. […] At 48 hpi, total RNA was purified using Trizol (Invitrogen) followed by the RNA Clean and Concentrate kit (Zymo Research). cDNA synthesis was performed with random hexamers and Moloney murine leukemia virus reverse transcriptase (Invitrogen). Gene-specific primers to rubella RA27/3 NSP and GAPDH were used (Table S4). […] Relative quantities of viral and cellular RNA were calculated using a relative standard curve method where quantification was performed with respect to a 5-point standard curve generated from serial dilutions of a pooled reference generated by combining each sample cDNA for the experiment. […]

rubella virus [10] = test: qRT-PCR of viral RNA in infected Jeg-3 cells; format: cell-based; conditions: 10 μM, 48 h, vs vehicle
Method: as §7, §8

[11] = cell number (cell viability) in Jeg-3 cells; format: cell-based, human; conditions: human, Jeg-3 cells (infected with rubella virus)
Method: as §1, with “The aggregated percent infection of the DMSO and 2 µM nanchangmycin control wells on each assay plate were used to calculate Z′-factors.” left out, “Candidate hits were selected as compounds with POC <40% and viability >60%, compared with vehicle control.” left out
as §4

rubella virus [12] = test system: rubella virus; parameters: method as in PMID 30680653, PMID 28974385; conditions: cited from earlier work
rubella virus [13] = test system: rubella virus; parameters: method as in PMID 30680653, PMID 28974385; conditions: case study; cited from earlier work
HCV [14] = test system: HCV; parameters: method as in PMID 31914458; conditions: cited from earlier work

CC(C)[C@H](N)C(=O)O[C@@H]1[C@@H](CO)O[C@@H](n2ccc(N)nc2=O)[C@]1(C)O [NM283]
toxicity in clinical trials (HCV [1]): gastrointestinal toxicity

O=C1NC(=O)C(c2cnc3ccccn23)=C1c1cn2c3c(cc(F)cc13)CN(C(=O)N1CCCCC1)CC2 [LY2090314]
activity against rubella in HBMEC (rubella virus [2]): showed activity | selectivity index (SI = CC50/IC50) (rubella RA27/3 virus): > 2000 | inhibition at 1 µM (rubella RA27/3 virus): > 60% | activity against rubella in Jeg-3 cells (rubella virus [3]; Jeg-3 cells, dose-response): no activity | viability at 48 h, 1 µM ([4]; A549 cells (infected with rubella virus RA27/3), A549 cells, 1 µM, compared with vehicle alone, read-out: cell viability in primary screen): > 60% | toxicity in Jeg-3 cells (Jeg-3 cells; Jeg-3 cells): no toxicity

C[C@@]1(O)[C@H](O)[C@@H](CO)O[C@H]1n1ccc(N)nc1=O [NM107, 2′-C-methylcytidine]
pIC50 (rubella virus [2]; Rubella virus): > 8.00 | bioavailability [5]: low bioavailability | reduction of viral titers (rubella virus [6]): ~100,000 fold | reduction of viral titers (rubella virus [7]): ~10,000 fold | CC50 at 48 h [8]: > 20000 nM | reduction in viral replication as measured by qRT-PCR (rubella virus [9]): > 100 fold | reduction in viral RNA by qRT-PCR (rubella virus [10]): > 100 fold | selectivity index (SI = CC50/IC50) (rubella RA27/3 virus): > 817 | pIC50 (rubella RA27/3 virus; A549, read-out: IC50, rubella virus infection): 7.70 | pIC50 (rubella virus [3]; Jeg-3 cells, read-out: IC50, rubella virus infection): 6.22 | CC50 at 48 h ([4]; A549 cells (infected with rubella virus RA27/3), A549 cells, cell number, read-out: half-maximal cytotoxicity concentration (CC50)): > 20000 nM | CC50 at 48 h [11]: > 20000 nM

CC(=O)Oc1ccccc1C(=O)Nc1ncc([N+](=O)[O-])s1 [nitazoxanide]
antiviral activity in cultured cells infected with rubella virus (rubella virus [12]): showed antiviral activity | rubella virus antigen in patient (skin lesions) (rubella virus [13]): reduced rubella antigen

COC1=C2C[C@@H](C)C[C@H](OC)[C@H](O)[C@@H](C)/C=C(\C)[C@H](OC(N)=O)[C@@H](OC)/C=C\C=C(/C)C(=O)NC(=CC1=O)C2=O [geldanamycin]
activity against rubella in HBMEC (rubella virus [2]): showed activity | selectivity index (SI = CC50/IC50) (rubella RA27/3 virus): > 163 | inhibition at 1 µM (rubella RA27/3 virus): > 60% | viability at 48 h, 1 µM [4]: > 60% | toxicity in Jeg-3 cells (Jeg-3 cells): high toxicity

CNc1nc(N)nc2c1ncn2[C@@H]1O[C@H](CO[P@@](=O)(N[C@@H](C)C(=O)OC(C)C)Oc2ccccc2)[C@@H](O)[C@@]1(C)F [AT-527]
in vivo activity in a clinical trial (HCV [14]; HCV infection): showed in vivo activity | tolerability in clinical trial (HCV [14]): well tolerated | reduction of viral titers (rubella virus [6]): ~100,000 fold | reduction of viral titers (rubella virus [7]): ~10,000 fold | reduction in viral replication as measured by qRT-PCR (rubella virus [9]): > 100 fold | reduction in viral RNA by qRT-PCR (rubella virus [10]): > 100 fold | selectivity index (SI = CC50/IC50) (rubella RA27/3 virus): > 9 | pIC50 (rubella RA27/3 virus; A549, read-out: half-maximal inhibitory concentration (IC50), rubella virus infection): 5.65 | pIC50 (rubella virus [3]; JEG-3, read-out: IC50, rubella virus infection): 8.00
